Values quoted from earlier work as cited in patent publication US20120244588A1, “METHOD OF PRODUCING 3-HYDROXYPROPIONIC ACID USING MALONIC SEMIALDEHYDE REDUCING PATHWAY” (SAMSUNG ELECTRONICS CO., LTD., priority 2011, published 2012).

Columns and labels:
[1] = 25° C.

| pKa [1] | solubility in water | solubility in water relative to citric acid or malic acid | Compound |
| --- | --- | --- | --- |
| 4.51 | very soluble | – | O=C(O)CCO [3-HP, 3-hydroxypropionic acid] |
| – | – | 100 times | O=C([O-])CCO.O=C([O-])CCO.[Ca+2] [calcium salt of 3-HP] |
